Source: US20250353841A1 (BIOGEN MA INC., priority 2022, published 2025)

What follows are compounds tested on mutant Huntington (HTT) protein (assay: HTT Mutant HTRF iPSC assay (mHTT protein lowering)). Details: human iPSC derived from a HTT patient with a poly-Q49 mutation.
Format: cell-based

Question: Cc1cn2nc(-c3cc(F)c4nc([C@H]5C[C@]6(CCNC6)C5)cn4c3)cc(C)c2n1 [Compound 191, 6-(8-fluoro-2-((2s,4s)-6-azaspiro[3.4]octan-2-yl)imidazo[1,2-a]pyridin-6-yl)-2,8-dimethylimidazo[1,2-b]pyridazine] was tested. Which IC50 did it give?
Answer: < 100 nM

Question: Cc1cn2nc(-c3cc(F)c4nc(C5CCN(C6CC6)CC5)nn4c3)cc(C)c2n1 [Compound 433, 2-(1-cyclopropylpiperidin-4-yl)-6-(2,8-dimethylimidazo[1,2-b]pyridazin-6-yl)-8-fluoro-[1,2,4]triazolo[1,5-a]pyridine] was tested. Which IC50 did it give?
Answer: 100 to 1000 nM

Question: For Cc1nc2c(C(F)(F)F)cc(-c3cc(F)c4nn(C5CCNCC5)nc4c3)nn2n1 [Compound 391, 6-(7-fluoro-2-(piperidin-4-yl)-2H-benzo[d][1,2,3]triazol-5-yl)-2-methyl-8-(trifluoromethyl)-[1,2,4]triazolo[1,5-b]pyridazine], which IC50 is on record?
Answer: < 100 nM

Question: How did the IC50 turn out when CCN1C[C@@H]2[C@H](C1)[C@H]2c1cn2cc(-c3cc(C)c4nc(C)cn4n3)cc(F)c2n1 [Compound 188, 6-(2-((1R,5S,6r)-3-ethyl-3-azabicyclo[3.1.0]hexan-6-yl)-8-fluoroimidazo[1,2-a]pyridin-6-yl)-2,8-dimethylimidazo[1,2-b]pyridazine] was run?
Answer: 100 to 1000 nM

Question: How did the IC50 turn out when Cc1cn2nc(-c3cc(F)c4nc(NC(=O)C5CCNC6(CC6)C5)nn4c3)cc(C)c2n1 (racemic) [Compound 330, N-(6-(2,8-dimethylimidazo[1,2-b]pyridazin-6-yl)-8-fluoro-[1,2,4]triazolo[1,5-a]pyridin-2-yl)-4-azaspiro[2.5]octane-7-carboxamide] was run?
Answer: 100 to 1000 nM

Question: Cc1cn2nc(-c3cc(F)c4nn(C5CCN(C)CC5)cc4c3)cc(C)c2n1 [Compound 364, 6-(7-fluoro-2-(1-methylpiperidin-4-yl)-2H-indazol-5-yl)-2,8-dimethylimidazo[1,2-b]pyridazine] was tested. Which IC50 did it give?
Answer: 100 to 1000 nM

Question: Cc1cn2nc(-c3cc(F)c4nc(C5CCNCC5)c(Cl)n4c3)ccc2n1 [Compound 126, 6-[3-chloro-8-fluoro-2-(4-piperidyl)imidazo[1,2-a]pyridin-6-yl]-2-methyl-imidazo[1,2-b]pyridazine] was tested. Which IC50 did it give?
Answer: < 100 nM

Question: With Cc1cn2nc(-c3cc(F)c4nn(C5CCNCC5)cc4c3)cc(C)c2n1 [Compound 355, 6-(7-fluoro-2-(piperidin-4-yl)-2H-indazol-5-yl)-2,8-dimethylimidazo[1,2-b]pyridazine] as the compound, how does the IC50 read?
Answer: < 100 nM

Question: Cc1cn2nc(-c3cc(C)c4nc(C5CCNCC5)cn4c3)cc(C)c2n1 [Compound 555, 2,8-dimethyl-6-(8-methyl-2-(piperidin-4-yl)imidazo[1,2-a]pyridin-6-yl)imidazo[1,2-b]pyridazine] was tested. Which IC50 did it give?
Answer: 100 to 1000 nM

Question: For Cc1cn2nc(-c3cc(F)c4nc(NC(=O)C5(C)CN(C)C5)cn4c3)cc(C)c2n1 [Compound 261, N-(6-(2,8-dimethylimidazo[1,2-b]pyridazin-6-yl)-8-fluoroimidazo[1,2-a]pyridin-2-yl)-1,3-dimethylazetidine-3-carboxamide], which IC50 is on record?
Answer: < 100 nM

Question: Cc1cn2nc(-c3cc(F)c4nn([C@H]5[C@@H]6CNC[C@@H]65)cc4c3)cc(C)c2n1 [Compound 361, 6-[2-[(1R,5S)-3-azabicyclo[3.1.0]hexan-6-yl]-7-fluoro-indazol-5-yl]-2,8-dimethyl-imidazo[1,2-b]pyridazine] was tested. Which IC50 did it give?
Answer: < 100 nM

Question: Cc1cn2nc(-c3cc(F)c4nc(CC5CNC5)nn4c3)cc(C)c2n1 [Compound 440, 2-(azetidin-3-ylmethyl)-6-(2,8-dimethylimidazo[1,2-b]pyridazin-6-yl)-8-fluoro-[1,2,4]triazolo[1,5-a]pyridine] was tested. Which IC50 did it give?
Answer: 100 to 1000 nM

Question: For CCN1CCC(c2cc(F)c3nc(-c4cc(C)c5nc(C)cn5n4)cn3c2)CC1 [Compound 132], which IC50 is on record?
Answer: 1000 to 9000 nM

Question: Which IC50 does the source give for Cc1cn2nc(-c3cc(F)c4nc(NC(=O)CC5CCNCC5)cn4c3)cc(C)c2n1 [Compound 284, N-(6-(2,8-dimethylimidazo[1,2-b]pyridazin-6-yl)-8-fluoroimidazo[1,2-a]pyridin-2-yl)-2-(piperidin-4-yl)acetamide] here?
Answer: 100 to 1000 nM

Question: For Fc1ccc2nc(-c3cc(F)c4nc(C5CCNCC5)cn4c3)cn2c1 [Compound 122, 6,8′-difluoro-2′-(piperidin-4-yl)-2,6′-biimidazo[1,2-a]pyridine], which IC50 is on record?
Answer: 1000 to 9000 nM

Question: Which IC50 does the source give for CNCCc1cn2cc(-c3cc(F)c4nc(C)cn4c3)cc(F)c2n1 [Compound 24, 2-(8,8′-difluoro-2′-methyl-[6,6′-biimidazo[1,2-a]pyridin]-2-yl)-N-methylethan-1-amine] here?
Answer: 1000 to 9000 nM

Question: Which IC50 does the source give for Cc1cn2nc(-c3cc(F)c4nc(C5CCC6(CCN(C)CC6)C5)cn4c3)cc(C)c2n1 (stereo not shown) [Compound 229, 2-(6-(2,8-dimethylimidazo[1,2-b]pyridazin-6-yl)-8-fluoroimidazo[1,2-a]pyridin-2-yl)-8-methyl-8-azaspiro[4.5]decane] here?
Answer: < 100 nM

Question: Cc1cn2nc(-c3cc(F)c4nc(N5CC6CN(C)CC6C5)oc4c3)cc(C)c2n1 (stereo not shown) [Compound 466, 6-(2,8-dimethylimidazo[1,2-b]pyridazin-6-yl)-4-fluoro-2-(5-methylhexahydropyrrolo [3,4-c]pyrrol-2(1H)-yl)benzo[d]oxazole] was tested. Which IC50 did it give?
Answer: 100 to 1000 nM

Question: Which IC50 does the source give for Cc1cn2nc(-c3cc(F)c4nc(NC(=O)C5(C)CNC5)cn4c3)cc(C)c2n1 [Compound 258, N-(6-(2,8-dimethylimidazo[1,2-b]pyridazin-6-yl)-8-fluoroimidazo[1,2-a]pyridin-2-yl)-3-methylazetidine-3-carboxamide] here?
Answer: < 100 nM

Question: Which IC50 does the source give for Fc1cc(-c2ccc3nsnc3c2)cn2cc(C3CCNCC3)nc12 [Compound 54, 5-(8-fluoro-2-(piperidin-4-yl)imidazo[1,2-a]pyridin-6-yl)benzo[c][1,2,5]thiadi azole] here?
Answer: 1000 to 9000 nM

Question: Which IC50 does the source give for Cc1cc(-c2cc(F)c3nc(NC(=O)C4CN(C(C)C)C4)cn3c2)nc2cn(C)nc12 [Compound 292, N-(6-(2,7-dimethyl-2H-pyrazolo[4,3-b]pyridin-5-yl)-8-fluoroimidazo[1,2-a]pyridin-2-yl)-1-isopropylazetidine-3-carboxamide] here?
Answer: < 100 nM

Question: Which IC50 does the source give for Cc1cn2nc(-c3cc(F)c4nc(C5CCN(C6COC6C)CC5)cn4c3)cc(C)c2n1 (stereo not shown) [Compound 213, 6-(8-fluoro-2-(1-(2-methyloxetan-3-yl)piperidin-4-yl)imidazo[1,2-a]pyridin-6-yl)-2,8-dimethylimidazo[1,2-b]pyridazine] here?
Answer: 100 to 1000 nM

Question: How did the IC50 turn out when Cc1cn2nc(-c3cc(F)c4nc(C5CC=CC5)cn4c3)cc(C)c2n1 [Compound 196, 6-(2-cyclopent-3-en-1-yl-8-fluoro-imidazo[1,2-a]pyridin-6-yl)-2,8-dimethyl-imidazo[1,2-b]pyridazine] was run?
Answer: 100 to 1000 nM

Question: How did the IC50 turn out when Cc1cn2nc(-c3ccc4nc(C5CCNCC5)oc4c3)cc(C)c2n1 [Compound 550, 6-(2,8-dimethylimidazo[1,2-b]pyridazin-6-yl)-2-(4-piperidyl)-1,3-benzoxazole] was run?
Answer: 100 to 1000 nM

Question: Which IC50 does the source give for Cc1cn2nc(-c3cc(OC(F)F)c4nc(C5CCNCC5)cn4c3)cc(C)c2n1 [Compound 537, 6-[8-(difluoromethoxy)-2-(4-piperidyl)imidazo[1,2-a]pyridin-6-yl]-2,8-dimethyl-imidazo[1,2-b]pyridazine] here?
Answer: < 100 nM

Question: Which IC50 does the source give for Cc1cn2nc(-c3cc(F)c4nc([C@H]5C[C@@H](CN(C)C)C5)cn4c3)cc(C)c2n1 [Compound 182, 1-((1s,3s)-3-(6-(2,8-dimethylimidazo[1,2-b]pyridazin-6-yl)-8-fluoroimidazo[1,2-a]pyridin-2-yl)cyclobutyl)-N,N-dimethylmethanamine] here?
Answer: < 100 nM

Question: For Cc1cn2nc(-c3cc(F)c4nc(NC(=O)C5CC6CC5CN6)cn4c3)cc(C)c2n1 (racemic) [Compound 280], which IC50 is on record?
Answer: < 100 nM

Question: How did the IC50 turn out when CCN1CCC(n2nc3cc(-c4cc(C)c5nc(C)cn5n4)cc(F)c3n2)CC1 [Compound 376, 6-(2,8-dimethylimidazo[1,2-b]pyridazin-6-yl)-2-(1-ethyl-4-piperidyl)-4-fluoro-benzotriazole] was run?
Answer: 100 to 1000 nM

Question: How did the IC50 turn out when Cc1cn2nc(-c3cc(F)c4nc(NC(=O)C5CCCCNC5)nn4c3)cc(C)c2n1 (stereo not shown) [Compound 321, N-(6-(2,8-dimethylimidazo[1,2-b]pyridazin-6-yl)-8-fluoro-[1,2,4]triazolo[1,5-a]pyridin-2-yl)azepane-3-carboxamide] was run?
Answer: 100 to 1000 nM

Question: Which IC50 does the source give for Cc1cn2nc(-c3cc(F)c4nc(NC(=O)C5CNC5(C)C)cn4c3)cc(C)c2n1 (racemic) [Compound 260, N-(6-(2,8-dimethylimidazo[1,2-b]pyridazin-6-yl)-8-fluoroimidazo[1,2-a]pyridin-2-yl)-2,2-dimethylazetidine-3-carboxamide] here?
Answer: 100 to 1000 nM

Question: For Cc1cn2nc(-c3cc(F)c4nc(NC(=O)C5CCNC6CC65)cn4c3)cc(C)c2n1 (stereo not shown) [Compound 271, N-(6-(2,8-dimethylimidazo[1,2-b]pyridazin-6-yl)-8-fluoroimidazo[1,2-a]pyridin-2-yl)-2-azabicyclo[4.1.0] heptane-5-carboxamide], which IC50 is on record?
Answer: < 100 nM

Question: How did the IC50 turn out when Cc1cn2nc(-c3cc(F)c4nc([C@@H]5CCC6(CCNCC6)C5)cn4c3)cc(C)c2n1 (single isomer, unassigned) [Compound 119] was run?
Answer: < 100 nM

Question: How did the IC50 turn out when Cc1cn2nc(-c3cc(F)c4nc(C56CC(C7CNC7)(C5)C6)cn4c3)cc(C)c2n1 [Compound 184] was run?
Answer: 100 to 1000 nM

Question: How did the IC50 turn out when Cc1cn2nc(-c3cc(F)c4nc([C@H]5[C@@H]6CN(C)C[C@@H]65)nn4c3)cc(C)c2n1 [Compound 453, 6-(2,8-dimethylimidazo[1,2-b]pyridazin-6-yl)-8-fluoro-2-[(1S,5R)-3-methyl-3-azabicyclo[3.1.0]hexan-6-yl]-[1,2,4]triazolo[1,5-a]pyridine] was run?
Answer: 100 to 1000 nM

Question: For Cc1cn2cc(-c3cc(F)c4nc(C5CCNCC5)cn4c3)cc(C#N)c2n1 [Compound 42, 8′-fluoro-2-methyl-2′-(piperidin-4-yl)-[6,6′-biimidazo[1,2-a]pyridine]-8-carbonitrile], which IC50 is on record?
Answer: 1000 to 9000 nM

Question: Which IC50 does the source give for Fc1cc(-c2ccn3nc(Br)cc3n2)cn2cc(C3CCNCC3)nc12 [Compound 199, 2-bromo-5-(8-fluoro-2-(piperidin-4-yl)imidazo[1,2-a]pyridin-6-yl)pyrazolo[1,5-a]pyrimidine] here?
Answer: 100 to 1000 nM

Question: Cc1cn2cc(-c3cc(F)c4nc(CC5CCNCC5)cn4c3)cc(F)c2n1 [Compound 236, 8,8′-difluoro-2-methyl-2′-(piperidin-4-ylmethyl)-6,6′-biimidazo[1,2-a]pyridine] was tested. Which IC50 did it give?
Answer: 100 to 1000 nM
